pIC50: −log10 of the molar value.
Target: T1, chymase derived from human skin (Homo sapiens, UniProt P23946)
T1 construct: chymase derived from human skin (Elastin Products Co.); purchased Elastin Products Co; host or cells: human skin (tissue-derived)
T1 sequence (P23946 22-247): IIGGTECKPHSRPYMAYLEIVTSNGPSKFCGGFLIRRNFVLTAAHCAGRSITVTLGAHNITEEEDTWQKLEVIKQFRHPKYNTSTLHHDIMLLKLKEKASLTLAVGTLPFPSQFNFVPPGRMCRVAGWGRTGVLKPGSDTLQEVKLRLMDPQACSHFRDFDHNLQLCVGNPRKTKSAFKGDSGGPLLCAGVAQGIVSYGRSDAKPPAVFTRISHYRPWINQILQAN
Assay: Inhibitory effect on chymase (in vitro test)
Type: biochemical
Details: 50 ng chymase, fluorescent synthetic substrate 0.1 mM, pH 8.0, 37° C. for 2 hours
Protocol: Inhibitory Effect on Chymase (In Vitro Test)
To 100 μl of a buffer solution A (50 mM Tris-hydrochloric acid (pH=8.0), 2M NaCl) were added 50 ng of chymase derived from human skin (Elastin Products Co.), a fluorescent synthetic substrate 0.1 mM succinyl-alanylprolyl-phenylalanine-methylcoumalylamide (Peptide Laboratories Co., Ltd.) and a test substance dissolved in dimethyl sulfoxide (DMSO), and the resulting mixture was incubated at 37° C. for 2 hours. Then, the intensity of fluorescence was measured at an excitation wavelength of 355 nm and a measuring wavelength of 460 nm by the use of a fluorescence plate reader (Fluoroscan (Dainippon Pharmaceutical Co., Ltd.)). A fluorescence intensity value obtained without adding the test substance was taken as 100% and a concentration at which a fluorescence intensity value calculated from a regression line became 50% was taken as IC50.

pIC50: 8.68
Compound: Cc1cn(Cc2cccc3ccccc23)/c(=N/S(=O)(=O)c2ccccc2C(=O)O)s1 [Example 1, 2-({[(2Z)-5-methyl-3-(1-naphthylmethyl)-1,3-thiazol-2(3H)-ylidene]amino}sulfonyl)benzoic acid]

— patent US20070105908A1, “Thiazolimine compound and oxazolimine compound” (DAINIPPON SUMITOMO PHARMA CO., LTD., priority 2003, published 2007)
